From US10344060B2 (priority 2013, dated 2019) come the findings set out here.

In assay [1] the target is hNav1.4 (Homo sapiens, UniProt P35499). In words: cell-based. Conditions: ratio of PX tonic IC50 values. It counts as cell-based.
Assay [2] concerns the target hNav1.7 (Homo sapiens, UniProt Q15858). In words: cell-based. It counts as cell-based.
Setting [3] is: Table 12, PatchXpress, tonic block, read-out: PX hNav1.7 Tonic IC50.

Several values for one entry are separate records, joined by “and”; a condition that tells them apart may be missing. Identical values can stand only once. Like-named read-outs stand apart in the source and are kept apart here.

Chain of hNav1.4 (P35499 whole entry): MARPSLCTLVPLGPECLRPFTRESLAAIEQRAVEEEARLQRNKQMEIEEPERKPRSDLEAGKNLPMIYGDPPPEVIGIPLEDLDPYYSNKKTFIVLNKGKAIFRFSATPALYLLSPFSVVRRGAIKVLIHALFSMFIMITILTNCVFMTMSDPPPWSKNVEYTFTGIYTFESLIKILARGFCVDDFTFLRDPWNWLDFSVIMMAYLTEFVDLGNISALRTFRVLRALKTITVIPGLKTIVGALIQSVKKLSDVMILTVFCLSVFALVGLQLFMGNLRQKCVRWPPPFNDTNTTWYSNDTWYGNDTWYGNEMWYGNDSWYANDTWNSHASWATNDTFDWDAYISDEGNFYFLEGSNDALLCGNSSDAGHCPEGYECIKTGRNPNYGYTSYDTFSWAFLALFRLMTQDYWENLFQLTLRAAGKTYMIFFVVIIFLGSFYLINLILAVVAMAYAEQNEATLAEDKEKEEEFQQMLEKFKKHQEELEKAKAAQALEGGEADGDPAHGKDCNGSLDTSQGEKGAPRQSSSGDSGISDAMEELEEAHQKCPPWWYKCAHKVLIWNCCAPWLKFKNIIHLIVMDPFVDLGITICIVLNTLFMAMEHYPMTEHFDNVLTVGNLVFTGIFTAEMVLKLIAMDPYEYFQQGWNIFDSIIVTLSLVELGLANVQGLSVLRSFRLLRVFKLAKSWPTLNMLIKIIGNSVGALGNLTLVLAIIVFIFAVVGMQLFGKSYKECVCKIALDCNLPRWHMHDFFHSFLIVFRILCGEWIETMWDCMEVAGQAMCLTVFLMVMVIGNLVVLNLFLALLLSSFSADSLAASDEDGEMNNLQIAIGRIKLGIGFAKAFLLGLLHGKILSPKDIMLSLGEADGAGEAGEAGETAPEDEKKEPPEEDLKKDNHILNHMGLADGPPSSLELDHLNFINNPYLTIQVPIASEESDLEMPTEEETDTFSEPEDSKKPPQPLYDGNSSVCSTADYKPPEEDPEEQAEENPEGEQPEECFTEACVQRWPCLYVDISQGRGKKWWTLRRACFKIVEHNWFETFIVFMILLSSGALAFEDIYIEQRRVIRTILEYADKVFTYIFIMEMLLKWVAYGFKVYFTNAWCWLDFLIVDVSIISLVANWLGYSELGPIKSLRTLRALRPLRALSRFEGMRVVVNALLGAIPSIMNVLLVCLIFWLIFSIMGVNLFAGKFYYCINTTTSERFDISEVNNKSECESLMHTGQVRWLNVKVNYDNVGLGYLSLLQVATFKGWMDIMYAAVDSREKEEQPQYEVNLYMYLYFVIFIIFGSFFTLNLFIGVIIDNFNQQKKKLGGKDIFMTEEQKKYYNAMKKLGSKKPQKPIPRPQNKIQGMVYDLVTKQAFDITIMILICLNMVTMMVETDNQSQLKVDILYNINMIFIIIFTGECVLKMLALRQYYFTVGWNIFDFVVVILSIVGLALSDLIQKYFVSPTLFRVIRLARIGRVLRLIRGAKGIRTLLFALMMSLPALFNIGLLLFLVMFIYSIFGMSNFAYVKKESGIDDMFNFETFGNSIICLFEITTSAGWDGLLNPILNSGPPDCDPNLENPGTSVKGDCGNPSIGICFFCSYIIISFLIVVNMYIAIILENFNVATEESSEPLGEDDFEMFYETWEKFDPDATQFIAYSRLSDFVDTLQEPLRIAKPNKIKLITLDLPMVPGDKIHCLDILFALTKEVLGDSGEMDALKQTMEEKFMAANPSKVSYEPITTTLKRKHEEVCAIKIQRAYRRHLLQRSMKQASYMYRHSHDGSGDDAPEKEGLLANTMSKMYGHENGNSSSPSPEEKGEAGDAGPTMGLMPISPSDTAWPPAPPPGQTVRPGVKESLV
Chain of hNav1.7 (Q15858 whole entry): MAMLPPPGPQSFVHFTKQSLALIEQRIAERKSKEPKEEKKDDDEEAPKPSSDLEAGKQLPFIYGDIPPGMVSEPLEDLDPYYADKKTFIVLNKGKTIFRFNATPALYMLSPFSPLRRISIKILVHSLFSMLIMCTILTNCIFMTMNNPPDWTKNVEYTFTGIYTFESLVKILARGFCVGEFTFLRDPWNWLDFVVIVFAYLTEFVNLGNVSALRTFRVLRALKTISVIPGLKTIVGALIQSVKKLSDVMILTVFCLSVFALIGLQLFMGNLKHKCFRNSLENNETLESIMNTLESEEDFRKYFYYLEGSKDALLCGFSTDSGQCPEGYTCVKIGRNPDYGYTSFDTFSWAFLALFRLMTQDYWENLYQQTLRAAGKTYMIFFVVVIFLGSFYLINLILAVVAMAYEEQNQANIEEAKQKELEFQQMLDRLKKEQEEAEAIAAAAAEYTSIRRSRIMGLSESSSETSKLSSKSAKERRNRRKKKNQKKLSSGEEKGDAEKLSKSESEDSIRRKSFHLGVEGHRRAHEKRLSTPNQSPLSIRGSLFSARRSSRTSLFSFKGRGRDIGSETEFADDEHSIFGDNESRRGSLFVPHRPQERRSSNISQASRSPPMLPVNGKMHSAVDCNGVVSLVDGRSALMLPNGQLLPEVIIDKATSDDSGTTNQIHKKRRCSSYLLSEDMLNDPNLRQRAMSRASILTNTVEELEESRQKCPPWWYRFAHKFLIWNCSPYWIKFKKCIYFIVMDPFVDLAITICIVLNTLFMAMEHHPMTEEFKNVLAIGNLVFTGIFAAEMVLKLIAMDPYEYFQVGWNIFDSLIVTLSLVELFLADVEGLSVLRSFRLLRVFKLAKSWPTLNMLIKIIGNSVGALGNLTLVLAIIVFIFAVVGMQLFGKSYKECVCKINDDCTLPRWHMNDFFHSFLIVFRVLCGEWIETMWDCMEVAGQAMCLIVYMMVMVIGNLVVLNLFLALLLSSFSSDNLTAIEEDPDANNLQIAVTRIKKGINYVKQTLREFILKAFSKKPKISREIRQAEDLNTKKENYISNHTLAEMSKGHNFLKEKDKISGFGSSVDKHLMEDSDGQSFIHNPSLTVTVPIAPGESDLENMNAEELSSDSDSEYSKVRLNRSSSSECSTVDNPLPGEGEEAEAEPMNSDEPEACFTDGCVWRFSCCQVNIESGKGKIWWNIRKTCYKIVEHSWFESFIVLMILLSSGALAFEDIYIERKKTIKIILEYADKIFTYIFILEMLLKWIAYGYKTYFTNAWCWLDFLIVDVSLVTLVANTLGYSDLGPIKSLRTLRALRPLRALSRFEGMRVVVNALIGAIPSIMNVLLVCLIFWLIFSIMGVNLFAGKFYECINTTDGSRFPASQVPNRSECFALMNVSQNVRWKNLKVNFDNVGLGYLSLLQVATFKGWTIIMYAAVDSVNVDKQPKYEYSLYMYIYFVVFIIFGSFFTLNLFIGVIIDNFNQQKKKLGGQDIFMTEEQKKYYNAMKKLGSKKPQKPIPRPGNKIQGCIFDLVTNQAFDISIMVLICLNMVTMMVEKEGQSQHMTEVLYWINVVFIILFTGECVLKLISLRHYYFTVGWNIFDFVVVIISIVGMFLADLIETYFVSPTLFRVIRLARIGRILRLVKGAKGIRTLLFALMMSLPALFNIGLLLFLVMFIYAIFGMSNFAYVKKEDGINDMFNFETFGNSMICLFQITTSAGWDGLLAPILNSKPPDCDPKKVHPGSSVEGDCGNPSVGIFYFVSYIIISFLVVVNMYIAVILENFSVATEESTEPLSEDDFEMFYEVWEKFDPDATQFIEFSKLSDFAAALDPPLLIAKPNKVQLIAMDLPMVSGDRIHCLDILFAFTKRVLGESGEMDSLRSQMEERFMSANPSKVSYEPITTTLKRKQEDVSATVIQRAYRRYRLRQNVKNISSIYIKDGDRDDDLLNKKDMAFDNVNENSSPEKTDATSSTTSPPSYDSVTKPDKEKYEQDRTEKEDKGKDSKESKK

`CCCC[C@@H]1NC(=O)[C@H](Cc2c[nH]c3ccccc23)NC(=O)[C@H](CCCCN)NC(=O)[C@H](CCC(N)=O)NC(=O)[C@@H](NC(=O)[C@H](Cc2ccc(O)cc2)NC(=O)[C@@H](N)Cc2cn(CCOCCOCCOCCOCCOCCOCCOCCOCCOCCOCCOCCOCCOCCOCCOCCOCCOCCOCCOCCOCCOCCOCCOCCNC(=O)c3cc(CNC(=O)CSCc4ccccc4)cc(C(=O)NCCOCCOCCOCCOCCOCCOCCOCCOCCOCCOCCOCCOCCOCCOCCOCCOCCOCCOCCOCCOCCOCCOCCOCCn4cc(C[C@H](N)C(=O)N[C@@H](Cc5ccc(O)cc5)C(=O)N[C@H]5CSSC[C@@H]6NC(=O)[C@@H]7CSSC[C@@H](C(=O)N[C@@H](CCCNC(=N)N)C(=O)N[C@@H](CCCCN)C(=O)N[C@H](C(=O)N[C@H](C(N)=O)[C@@H](C)CC)[C@@H](C)CC)NC(=O)[C@H](Cc8c[nH]c9ccccc89)NC(=O)[C@H](CC(C)C)NC(=O)[C@H](CCCCN)NC(=O)[C@H](CSSC[C@H](NC(=O)[C@H]([C@@H](C)O)NC(=O)[C@H](Cc8c[nH]c9ccccc89)NC(=O)[C@H](CCCC)NC(=O)[C@H](Cc8c[nH]c9ccccc89)NC(=O)[C@H](CCCCN)NC(=O)[C@H](CCC(N)=O)NC5=O)C(=O)N[C@@H](CC(=O)O)C(=O)N[C@@H](CO)C(=O)N[C@@H](CCCCN)C(=O)N[C@@H](CCCNC(=N)N)C(=O)N[C@@H](C)C(=O)N7)NC(=O)[C@H](CCCNC(=N)N)NC(=O)[C@H](CC(C)C)NC(=O)CNC(=O)[C@H](CCC(=O)O)NC6=O)nn4)c3)nn2)CSSC[C@@H]2NC(=O)[C@@H]3CSSC[C@@H](C(=O)N[C@@H](CCCNC(=N)N)C(=O)N[C@@H](CCCCN)C(=O)N[C@H](C(=O)N[C@H](C(N)=O)[C@@H](C)CC)[C@@H](C)CC)NC(=O)[C@H](Cc4c[nH]c5ccccc45)NC(=O)[C@H](CC(C)C)NC(=O)[C@H](CCCCN)NC(=O)[C@H](CSSC[C@H](NC(=O)[C@H]([C@@H](C)O)NC(=O)[C@H](Cc4c[nH]c5ccccc45)NC1=O)C(=O)N[C@@H](CC(=O)O)C(=O)N[C@@H](CO)C(=O)N[C@@H](CCCCN)C(=O)N[C@@H](CCCNC(=N)N)C(=O)N[C@@H](C)C(=O)N3)NC(=O)[C@H](CCCNC(=N)N)NC(=O)[C@H](CC(C)C)NC(=O)CNC(=O)[C@H](CCC(=O)O)NC2=O` [Homodimeric Conjugate No. 2, Bis-{Atz(PEG23*)-[Nle6]JzTx-V(1-29)}-5-((2-(benzylthio)acetamido)methyl)isophthalamide]: the Nav1.4/Nav1.7 in assay [1] (Table 13) was 5 and 3.
Consider `CCCC[C@@H]1NC(=O)[C@H](Cc2c[nH]c3ccccc23)NC(=O)[C@H](CCCCN)NC(=O)[C@H](CCC(N)=O)NC(=O)[C@@H](NC(=O)[C@H](Cc2ccc(O)cc2)NC(=O)[C@@H](N)Cc2cn(CCOCCOCCOCCOCCOCCOCCOCCOCCOCCOCCOCCOCCOCCOCCOCCOCCOCCOCCOCCOCCOCCOCCOCCNC(=O)c3cc(CN)cc(C(=O)NCCOCCOCCOCCOCCOCCOCCOCCOCCOCCOCCOCCOCCOCCOCCOCCOCCOCCOCCOCCOCCOCCOCCOCCn4cc(C[C@H](N)C(=O)N[C@@H](Cc5ccc(O)cc5)C(=O)N[C@H]5CSSC[C@@H]6NC(=O)[C@@H]7CSSC[C@@H](C(=O)N[C@@H](CCCNC(=N)N)C(=O)N[C@@H](CCCCN)C(=O)N[C@@H](CCC(=O)O)C(=O)N[C@H](C(N)=O)[C@@H](C)CC)NC(=O)[C@H](Cc8c[nH]c9ccccc89)NC(=O)[C@H](CC(C)C)NC(=O)[C@H](CCCCN)NC(=O)[C@H](CSSC[C@H](NC(=O)[C@H]([C@@H](C)O)NC(=O)[C@H](Cc8c[nH]c9ccccc89)NC(=O)[C@H](CCCC)NC(=O)[C@H](Cc8c[nH]c9ccccc89)NC(=O)[C@H](CCCCN)NC(=O)[C@H](CCC(N)=O)NC5=O)C(=O)N[C@@H](CC(=O)O)C(=O)N[C@@H](CO)C(=O)N[C@@H](CCCCN)C(=O)N[C@@H](CCCNC(=N)N)C(=O)N[C@@H](C)C(=O)N7)NC(=O)[C@H](CCCNC(=N)N)NC(=O)[C@H](CC(C)C)NC(=O)CNC(=O)[C@H](CCC(=O)O)NC6=O)nn4)c3)nn2)CSSC[C@@H]2NC(=O)[C@@H]3CSSC[C@@H](C(=O)N[C@@H](CCCNC(=N)N)C(=O)N[C@@H](CCCCN)C(=O)N[C@@H](CCC(=O)O)C(=O)N[C@H](C(N)=O)[C@@H](C)CC)NC(=O)[C@H](Cc4c[nH]c5ccccc45)NC(=O)[C@H](CC(C)C)NC(=O)[C@H](CCCCN)NC(=O)[C@H](CSSC[C@H](NC(=O)[C@H]([C@@H](C)O)NC(=O)[C@H](Cc4c[nH]c5ccccc45)NC1=O)C(=O)N[C@@H](CC(=O)O)C(=O)N[C@@H](CO)C(=O)N[C@@H](CCCCN)C(=O)N[C@@H](CCCNC(=N)N)C(=O)N[C@@H](C)C(=O)N3)NC(=O)[C@H](CCCNC(=N)N)NC(=O)[C@H](CC(C)C)NC(=O)CNC(=O)[C@H](CCC(=O)O)NC2=O` [Homodimeric Conjugate No. 7], for which the Nav1.4/Nav1.7 in assay [1] (Table 13) turned out to be 94.
For `C#CC[C@H](N)C(=O)NCCCC[C@@H]1NC(=O)[C@H](CCCNC(=N)N)NC(=O)[C@H](CCCCN)NC(=O)[C@H](CO)NC(=O)[C@H](CC(=O)O)NC(=O)[C@@H]2CSSC[C@@H]3NC(=O)[C@H](CCC(=O)O)NC(=O)[C@H](CC(C)C)NC(=O)CNC(=O)[C@H](CCC(=O)O)NC(=O)[C@H](CSSC[C@H](NC(=O)[C@H](Cc4ccc(O)cc4)NC(=O)[C@@H](N)CC#N)C(=O)N[C@@H](CCC(N)=O)C(=O)N[C@@H](CCCCN)C(=O)N[C@@H](Cc4c[nH]c5ccccc45)C(=O)N[C@@H](CCCC)C(=O)N[C@@H](Cc4c[nH]c5ccccc45)C(=O)N[C@@H]([C@@H](C)O)C(=O)N2)NC(=O)[C@H](CSSC[C@@H](C(=O)N[C@@H](CCCNC(=N)N)C(=O)N[C@@H](CCCCN)C(=O)N[C@@H](Cc2ccc(O)cc2)C(=O)N[C@H](C(N)=O)[C@@H](C)CC)NC(=O)[C@H](Cc2c[nH]c4ccccc24)NC(=O)[C@H](CC(C)C)NC(=O)[C@H](CCCCN)NC3=O)NC1=O` [compound 394], in assay [1] (Table 12), the Nav1.4/Nav1.7 is reported as 19130.
Usually IC50 stands for the concentration that inhibits the measured activity by half. In the case of `C#CC[C@@H]1NC(=O)[C@@H]2CSSC[C@H](NC(=O)[C@H](Cc3ccc(O)cc3)NC(=O)[C@@H](N)CC#N)C(=O)N[C@@H](CCC(N)=O)C(=O)N[C@@H](CCCCN)C(=O)N[C@@H](Cc3c[nH]c4ccccc34)C(=O)N[C@@H](CCCC)C(=O)N[C@@H](Cc3c[nH]c4ccccc34)C(=O)N[C@@H]([C@@H](C)O)C(=O)N[C@H]3CSSC[C@H](NC(=O)[C@H](CCCNC(=N)N)NC(=O)[C@H](CC(C)C)NC(=O)CNC1=O)C(=O)N[C@@H](CCCCN)C(=O)N[C@@H](CC(C)C)C(=O)N[C@@H](Cc1c[nH]c4c(Br)cccc14)C(=O)N[C@H](C(=O)N[C@@H](CCCNC(=N)N)C(=O)N[C@@H](CCCCN)C(=O)N[C@@H](CCC(=O)O)C(=O)N[C@H](C(N)=O)[C@@H](C)CC)CSSC[C@H](NC(=O)[C@H](C)NC(=O)[C@H](CCCNC(=N)N)NC(=O)[C@H](CCCCN)NC(=O)[C@H](CO)NC(=O)[C@H](CC(=O)O)NC3=O)C(=O)N2` [compound 875], in assay [2] (setting [3]), the IC50 is 25.3 nM.
Turning to `C#CC[C@@H]1NC(=O)[C@H](CO)NC(=O)[C@H](CC(=O)O)NC(=O)[C@@H]2CSSC[C@@H]3NC(=O)[C@H](CCCNC(=N)N)NC(=O)[C@H](CC(C)C)NC(=O)CNC(=O)[C@H](CCC(=O)O)NC(=O)[C@H](CSSC[C@H](NC(=O)[C@@H](N)Cc4ccc(O)cc4)C(=O)N[C@@H](CCC(N)=O)C(=O)N[C@@H](CCCCN)C(=O)N[C@@H](Cc4c[nH]c5ccccc45)C(=O)N[C@@H](CCCC)C(=O)N[C@@H](Cc4c[nH]c5ccccc45)C(=O)N[C@@H]([C@@H](C)O)C(=O)N2)NC(=O)[C@H](CSSC[C@@H](C(=O)N[C@@H](CCCNC(=N)N)C(=O)N[C@@H](CCCCN)C(=O)N[C@@H](CCC(=O)O)C(=O)N[C@H](C(N)=O)[C@@H](C)CC)NC(=O)[C@H](Cc2c[nH]c4ccccc24)NC(=O)[C@H](CC(C)C)NC(=O)[C@H](CCCCN)NC3=O)NC(=O)[C@H](C)NC(=O)[C@H](CCCNC(=N)N)NC1=O` [compound 879], the IC50 in assay [2] (setting [3]) stood at 1.35 nM.
Take `CCCC[C@@H]1NC(=O)[C@H](Cc2c[nH]c3ccccc23)NC(=O)[C@H](CCCCN)NC(=O)[C@H](CCC(N)=O)NC(=O)[C@@H](NC(=O)[C@H](Cc2ccc(O)cc2)NC(=O)[C@@H](N)CC#N)CSSC[C@@H]2NC(=O)[C@@H]3CSSC[C@@H](C(=O)N[C@@H](CCCNC(=N)N)C(=O)N[C@@H](CCCCN)C(=O)N[C@@H](CCC(=O)O)C(=O)N[C@H](C(N)=O)[C@@H](C)CC)NC(=O)[C@H](Cc4c[nH]c5ccccc45)NC(=O)[C@H](CC(C)C)NC(=O)[C@H](CCCCN)NC(=O)[C@H](CSSC[C@H](NC(=O)[C@H]([C@@H](C)O)NC(=O)[C@H](Cc4c[nH]c5ccccc45)NC1=O)C(=O)N[C@@H](CC(=O)O)C(=O)N[C@@H](CO)C(=O)N[C@@H](CCCCN)C(=O)N[C@@H](CCCNC(=N)N)C(=O)N[C@@H](C)C(=O)N3)NC(=O)[C@H](CCCNC(=N)N)NC(=O)[C@H](CC(C)C)NC(=O)CNC(=O)[C@H](Cc1cn(CCCCCCCCCCCCCCC(=O)O)nn1)NC2=O` [compound 895]: the IC50 in assay [2] (read-out: PX hNav1.7 Tonic IC50) came out at 260 nM.
On to `C#CC[C@@H]1NC(=O)[C@@H]2CSSC[C@H](NC(=O)[C@@H](N)CC#N)C(=O)N[C@@H](CCC(N)=O)C(=O)N[C@@H](CCCCN)C(=O)N[C@@H](Cc3c[nH]c4ccccc34)C(=O)N[C@@H](CCCC)C(=O)N[C@@H](Cc3c[nH]c4ccccc34)C(=O)N[C@@H]([C@@H](C)O)C(=O)N[C@H]3CSSC[C@H](NC(=O)[C@H](CCCNC(=N)N)NC(=O)[C@H](CC(C)C)NC(=O)CNC1=O)C(=O)N[C@@H](CCC(N)=O)C(=O)N[C@@H](CC(C)C)C(=O)N[C@@H](Cc1c[nH]c4ccccc14)C(=O)N[C@H](C(=O)N[C@@H](CCCNC(=N)N)C(=O)N[C@@H](CCCCN)C(=O)N[C@@H](CCC(=O)O)C(=O)N[C@H](C(N)=O)[C@@H](C)CC)CSSC[C@H](NC(=O)[C@H](C)NC(=O)[C@H](CCCNC(=N)N)NC(=O)[C@H](CCCCN)NC(=O)[C@H](CO)NC(=O)[C@H](CC(=O)O)NC3=O)C(=O)N2` [compound 1680], for which the IC50 in assay [2] (setting [3]) amounted to 47.6 nM.
For the compound “[Phe6,Atz(500 Da EtO-PEG*-[Phe6,Atz13*]GpTx-1(1-34)1)13]GpTx-1(1-34) [Homodimeric Conjugate No. 4]”, in assay [2], the Wash out result was “Yes”. For the same compound, the IC50 in assay [2] (read-out: Nav1.7 PX IC50) was determined as 19 nM.
